Laboratory results reported in patent US12070505B2, “Targeted peptide-drug conjugates” (priority 2021, dated 2024).
Like-named read-outs stand apart in the source and are kept apart here.

Columns and labels:
H9C2 cells = assay: Cytotoxicity, MTS assay, normal heart muscle cells (Example 1)
Protocol: (§4) In Vitro Cytotoxicity Assay of Peptide-Drug Conjugates. The cytotoxicity of the compounds was determined by using human leukemia cell line (CCRF-CEM), human ovarian adenocarcinoma cells (SKOV-3) cells, kidney cell line (LLC-PK1), gastric adenocarcinoma cells (AGS), and heart/myocardium cells (H9C2) to evaluate the toxicity of the generated peptides according to a previously reported procedure (Rahman, A.; et al. Proc. Am. Assoc. Cancer Res. 26:2295-2299, 1985, which is incorporated herein by reference). In brief, CCRF-CEM cells were seeded at 50,000 cells in 0.1 mL per well in 98-well plates. In the case of other cell lines, the cells were seeded at 5,000 cells (0.1 mL per well in 96-well plates). The cells were seeded in medium (RPMI-1640 containing FBS (10%)), 24 h prior to the experiment. The compounds at different concentrations (10-50 μM) were added to each well in triplicate and incubated for 24 and 72 h at 37° C. in a humidified atmosphere of 5% CO2. Dox (5 μM) was used as a positive control, while water and cell culture medium were used as negative controls. The compounds were dissolved in water; water was used as a negative control to normalize the data. After the incubation period, MTS reagent (20 μL) was added to each well. The incubation was continued for 2 h. Cell viability was then determined by determination of the fluorescence intensity at 490 nm using a SpectraMax M2 microplate spectrophotometer.

[1] = as above; settings: rat, H9C2 heart/myocardium cells
Protocol: as §4

[2] = tested on: gastric adenocarcinoma cells (AGS); assay: Cytotoxicity, MTS cell viability assay, AGS
Protocol: (§5) In Vitro Cytotoxicity Assay of Peptide-Drug Conjugates. […] In brief, CCRF-CEM cells were seeded at 50,000 cells in 0.1 mL per well in 98-well plates. In the case of other cell lines, the cells were seeded at 5,000 cells (0.1 mL per well in 96-well plates). […] Dox (5 μM) was used as a positive control, while water and cell culture medium were used as negative controls. The compounds were dissolved in water; water was used as a negative control to normalize the data. After the incubation period, MTS reagent (20 μL) was added to each well. The incubation was continued for 2 h. Cell viability was then determined by determination of the fluorescence intensity at 490 nm using a SpectraMax M2 microplate spectrophotometer. The percentage of cell viability was then calculated using the following equation: [(OD value of cells treated with the compound)−(OD value of culture medium)]/[(OD value of control cells)−(OD value of culture medium)]×100% (FIGS. 6-9).

[3] = tested on: uterine sarcoma cells (MES-SA/MX2)
Protocol: as §5

SK-OV-3 cells = assay: Cytotoxicity, MTS cell viability assay, SK-OV-3 (Example 1)
Protocol: as §5

MES-SA/MX2 cells = assay: LC50 by CCK-8 assay, Dox-resistant MES-SA/MX2; assay type: cell-based; settings: FIG. 10: after 72 h
Protocol: (§1) Dox-resistant Cell Lines. Acquired resistance to Dox was induced in wild-type triple-negative breast cancer cell line MDA-MB-231 (MDA-231WT) as described before (Aliabadi, H. M.; et al. J. Control. Release 172:219-228, 2013, which is incorporated herein by reference). Briefly, MDA-231WT cells were exposed to Dox at an initial concentration of 0.05 μg/mL for one week or three consecutive expansions (whichever came later). […] Resistance induction was confirmed via calculation of LC50 following a sigmoidal effect model explained elsewhere (Bousoik, E.; et al. Front. Oncol. 9:1070, 2019, which is incorporated herein by reference) and determination of P-glycoprotein (P-gp) expression.
The cytotoxicity of the peptide-Dox conjugate in resistant triple-negative breast cancer and uterine sarcoma cell lines (MDA-231R, MDA-231WT, and MES-SA/MX2) was evaluated by a Cell Counting 8 (CCK8) KIT. The peptide-Dox conjugate was added to the cells in triplicate with different concentrations (0-40 μM). […] After this incubation period, 10 μL of CCK8 reagent was added to each well, and plates were incubated at the same conditions for 2 h. The absorbance of each well was determined at 450 nm using the SpectraMAX M5 microplate reader. […]
Efficiency in Dox-Resistant Cells. […] The cell viability was determined after this incubation period using the CCK-8 assay, as explained above. […]

CCRF-CEM cells = assay: Cytotoxicity, MTS cell viability assay, CCRF-CEM
Protocol: as §5

MDA-231WT cells = assay: LC50 by CCK-8 assay, wild-type cells; assay type: cell-based; settings: MDA-231WT (wild type), FIG. 10: after 72 h
Protocol: as §1
(§2) The cytotoxicity of the peptide-Dox conjugate in resistant triple-negative breast cancer and uterine sarcoma cell lines (MDA-231R, MDA-231WT, and MES-SA/MX2) was evaluated by a Cell Counting 8 (CCK8) KIT. The peptide-Dox conjugate was added to the cells in triplicate with different concentrations (0-40 μM). Cells were incubated at 37° C. and 5% CO2 for 24 h. After this incubation period, 10 μL of CCK8 reagent was added to each well, and plates were incubated at the same conditions for 2 h. The absorbance of each well was determined at 450 nm using the SpectraMAX M5 microplate reader. After subtracting the signal from blank wells that contain medium without cells in the plate with CCK-8 solution added, the results were normalized to cells treated with normal saline (considered as 100%)
(§3) Efficiency in Dox-Resistant Cells. In order to compare the cytotoxic effect of free and peptide-conjugated Dox in Dox-resistant cells, MDA-231WT (as a Dox-sensitive cell line as control) and MDA-231R and MES-SA/MX2 cells as Dox-resistant cells were exposed to a wide range of Dox (or Dox-equivalent for the peptide-conjugated drug) concentrations (0.05-40 μM). Cells were seeded in 96-well plates with approximately 50% confluency and were incubated for 24 h in 37° C. and 5% CO2. […] The cell viability was determined after this incubation period using the CCK-8 assay, as explained above. […]

[4] = Stability of [R5K]W7A-Dox in fetal bovine serum (HPLC); assay type: in vitro ADME; settings: 10% FBS, 37° C.
Protocol: Stability Studies. The stability of [R5K]W7A-Dox conjugate was evaluated using phosphate-buffered saline (PBS) and fetal bovine serum (FBS). FBS was purchased from Invitrogen and ATCC. FBS (20%) was incubated with [R5K]W7A-Dox (75 μL, 1 mM in water) at 37° C. followed by intermediate mixing. An aliquot of 75 μL of the mixture was taken out at different time intervals (5 min to 24 h) and diluted with water (75 μL). The mixture was analyzed by using analytical HPLC, detecting the wavelength of 490 nm. The area under the curve (AUC) was calculated and used to determine the percentage of released Dox and the remaining prodrug at a given time.

MDA-231R cells = assay: LC50 by CCK-8 assay, Dox-resistant MDA-231R; assay type: cell-based; settings: MDA-231R (Dox-resistant); FIG. 10: after 72 h
Protocol: as §1, §2, §3

LLC-PK1 kidney cells = assay: Cytotoxicity, MTS assay, normal kidney cells
Protocol: as §4

[5] = Cytotoxicity, MTS assay, normal kidney cells; settings: pig, LLC-PK1 kidney cells
Protocol: as §4

COc1cccc2c1C(=O)c1c(O)c3c(c(O)c1C2=O)C[C@@](O)(C(=O)COC(=O)CCCC(=O)NCCC(=O)N[C@@H](Cc1c[nH]c2ccccc12)C(=O)N[C@@H](Cc1c[nH]c2ccccc12)C(=O)N[C@@H](Cc1c[nH]c2ccccc12)C(=O)N[C@@H](Cc1c[nH]c2ccccc12)C(=O)N[C@@H](Cc1c[nH]c2ccccc12)C(=O)N[C@@H](Cc1c[nH]c2ccccc12)C(=O)N[C@@H](Cc1c[nH]c2ccccc12)C(=O)NCCCC[C@@H]1NC(=O)[C@H](CCCNC(=N)N)NC(=O)[C@H](CCCNC(=N)N)NC(=O)[C@H](CCCNC(=N)N)NC(=O)[C@H](CCCNC(=N)N)NC(=O)[C@H](CCCNC(=N)N)NC1=O)C[C@@H]3O[C@H]1C[C@H](N)[C@H](O)[C@H](C)O1 [[R5K]W7A-Dox]
cytotoxicity to heart cells (H9C2 cells; H9C2, 5-10 μM): < 9%
toxicity (H9C2 cells; H9C2, 5-10 μM, 24 h, 72 h, and 96 h): did not show any significant toxicity
Cell Viability (%) after 24 h (H9C2 cells; normal heart H9C2, 5 μM): 100 ± 2%
Cell Viability (%) after 24 h (H9C2 cells; normal heart H9C2, 10 μM): 101 ± 0%
Cell Viability (%) after 72 h (H9C2 cells; normal heart H9C2, 10 μM): 105 ± 3%
viability at 24 h, 5 µM [1]: 100 ± 2%
viability at 24 h, 10 µM [1]: 101%
viability at 24 h, 25 µM [1]: 68%
viability at 72 h, 10 µM [1]: 105 ± 3%
viability at 72 h, 25 µM [1]: 37 ± 1%
viability at 96 h, 5 µM [1]: 115 ± 1%
viability at 96 h, 10 µM [1]: 91%
viability at 96 h, 25 µM [1]: 39%
Cell Viability (%) after 24 h ([2]; 5 μM): 95 ± 0%
Cell Viability (%) after 72 h ([2]; 5 μM): 27 ± 6%
reduction of cell survival/viability ([2]; 5 μM, 72 h): 73%
Cell Viability (%) after 24 h ([2]; 10 μM): 104 ± 5%
Cell Viability (%) after 72 h ([2]; 10 μM): 13 ± 3%
Cell Viability (%) after 24 h ([2]; 25 μM): 71 ± 0%
Cell Viability (%) after 72 h ([2]; 25 μM): 10 ± 1%
Cell Viability (%) after 24 h ([2]; 50 μM): 32 ± 1%
Cell Viability (%) after 72 h ([2]; 50 μM): 11 ± 1%
cytotoxicity ([2]; 5 and 10 μM, 24 h): not significantly cytotoxic
reduction of cell viability ([2]; different concentrations, 72 h): 73-90%
Cell Viability (%) after 72 h ([3]; 5 μM, listed as [R5K]W7-Dox): 97 ± 2%
Cell Viability (%) after 72 h ([3]; 5 μM, listed as [R5K]W7Dox): 113 ± 1%
Cell Viability (%) after 72 h ([3]; 10 μM): 89 ± 2%
Cell Viability (%) after 72 h ([3]; 25 μM): 23 ± 4%
reduction of cell viability ([3]; 25 μM, 72 h): ~80%
cytotoxicity ([3]; 5 and 10 μM, 72 h): 0-10%
Cell Viability (%) after 24 h (SK-OV-3 cells; 5 μM): 87 ± 6%
Cell Viability (%) after 72 h (SK-OV-3 cells; 5 μM): 71 ± 3%
reduction of cell survival/viability (SK-OV-3 cells; 5 μM, 24 h): 19%
reduction of cell survival/viability (SK-OV-3 cells; 5 μM, 72 h): 29%
Cell Viability (%) after 24 h (SK-OV-3 cells; 10 μM): 87 ± 0%
Cell Viability (%) after 72 h (SK-OV-3 cells; 10 μM): 61 ± 6%
reduction of cell viability (SK-OV-3 cells; 10 μM, 72 h): 39%
Cell Viability (%) after 24 h (SK-OV-3 cells; 25 μM): 76 ± 1%
Cell Viability (%) after 72 h (SK-OV-3 cells; 25 μM): 52 ± 3%
reduction of cell viability / cytotoxicity (SK-OV-3 cells; 25 μM, 72 h): 48%
CC50 (MES-SA/MX2 cells): 4.3 µM
Cell Viability (%) after 24 h (CCRF-CEM cells; 5 μM): 74 ± 0%
Cell Viability (%) after 72 h (CCRF-CEM cells; 5 μM): 16 ± 6%
reduction of cell survival/viability (CCRF-CEM cells; 5 μM, 72 h): 84%
Cell Viability (%) after 24 h (CCRF-CEM cells; 10 μM): 68 ± 0%
Cell Viability (%) after 72 h (CCRF-CEM cells; 10 μM): 13 ± 3%
Cell Viability (%) after 24 h (CCRF-CEM cells; 25 μM): 36 ± 0%
Cell Viability (%) after 72 h (CCRF-CEM cells; 25 μM): 15 ± 1%
reduction of cell viability (CCRF-CEM cells; 25 μM, 24 h): 64%
cytotoxicity (CCRF-CEM cells; at 5, 10, and 25 μM, 72 h): 84-87%
CC50 (MDA-231WT cells): 0.56 µM
CC50 (MDA-231WT cells; listed as Conjugated Dox): 0.66 µM
Dox released ([4]; after 4 h): 55%
remaining at 24 h ([4]; bovine, 10% fetal bovine serum, after 24 h, read-out: peptide-Dox conjugate remained intact): 25%
CC50 (MDA-231R cells): 2.3 µM
cytotoxicity to normal kidney cells (LLC-PK1 kidney cells; LLC-PK1, 5-10 μM): 5-7%
cytotoxicity (LLC-PK1 kidney cells; LLC-PK1, as high as 10 μM, 24 h and 72 h): not cytotoxic
Cell Viability (%) after 24 h (LLC-PK1 kidney cells; normal kidney LLC-PK1, 5 μM): 88 ± 0%
Cell Viability (%) after 72 h (LLC-PK1 kidney cells; normal kidney LLC-PK1, 5 μM): 93 ± 6%
Cell Viability (%) after 72 h (LLC-PK1 kidney cells; normal kidney LLC-PK1, 10 μM): 95 ± 3%
viability at 24 h, 5 µM [5]: 88%
viability at 24 h, 25 µM [5]: 42%
viability at 24 h, 50 µM [5]: 33 ± 1%
viability at 72 h, 5 µM [5]: 93 ± 6%
viability at 72 h, 10 µM [5]: 95 ± 3%
viability at 72 h, 25 µM [5]: 94 ± 1%
viability at 72 h, 50 µM [5]: 33 ± 1%
